Data taken from patent publication US20130289071A1, “TETRAZOLYL-TETRAHYDROPYRIDINE COMPOUNDS FOR INFLAMMATION AND IMMUNE-RELATED USES” (Synta Pharmaceuticals Corp., priority 2010, published 2013).

Columns and labels:
IL-2 production = assay: Inhibition of IL-2 production (Jurkat/PHA/1% FBS, ELISA); assay type: cell-based; settings: Homo sapiens, Jurkat, 20 h, Jurkat cells, PHA 2.5 μg/mL
Description: JurkaT-cells were placed in a 96 well plate (0.5 million cells per well in 1% FBS medium), and then a test compound of this invention was added at different concentrations. After 10 minutes, the cells were activated with PHA (final concentration 2.5 μg/mL) and incubated for 20 hours at 37° C. under 5% CO2. The final volume was 200 μL. Following incubation, the cells were centrifuged, and the supernatants collected and stored at −70° C. prior to assaying for IL-2 production. A commercial ELISA kit (IL-2 Eli-pair, Diaclone Research, Besancon, France) was used to detect production of IL-2, from which dose response curves were obtained. The IC50 value was calculated as the concentration at which 50% of maximum IL-2 production after stimulation was inhibited versus a non-stimulation control.

[1] = target: T1, CRAC ion channels (ICRAC current), RBL-2H3 cells (Rattus norvegicus, UniProt Q5M848); assay: Automated patch clamp (Qpatch) inhibition of ICRAC current in RBL-2H3 cells; assay type: cell-based; settings: 100 nM compound, % ICRAC inhibition
T1 construct: endogenous in cells; host or cells: RBL-2H3 (rat basophilic leukemia) cells
T1 sequence (Q5M848 whole entry): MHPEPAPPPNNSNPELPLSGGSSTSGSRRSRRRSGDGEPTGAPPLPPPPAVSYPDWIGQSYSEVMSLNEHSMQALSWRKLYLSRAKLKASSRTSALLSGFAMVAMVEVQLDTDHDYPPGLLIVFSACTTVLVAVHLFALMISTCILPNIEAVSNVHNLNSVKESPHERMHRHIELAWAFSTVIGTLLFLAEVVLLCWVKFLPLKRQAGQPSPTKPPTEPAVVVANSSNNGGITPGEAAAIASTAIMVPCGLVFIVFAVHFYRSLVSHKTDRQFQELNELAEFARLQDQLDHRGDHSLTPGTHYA
Description: Automated patch clamp experiments are conducted with the QPatch 16 (Sophion Bioscience, Ballerup, Denmark) at room temperature (21-25° C.). Immediately following the establishment of giga-seal whole-cell configuration, the cells membrane potential is clamped at 0 mV. Voltage ramps of 50 ms duration spanning the voltage range of −100 to +100 mV are then stimulated at a rate of 0.33 Hz. Currents are filtered at 2.9 kHz and digitized at 200 μs intervals. Capacitive currents and series resistance are determined and corrected before each voltage ramp using the automatic capacitance compensation.
RBL-2H3 are grown in DMEM media supplemented with 10% fetal bovine serum, penicillin 100 U/ml and streptomycin […] in an atmosphere of 95% air/5% CO2. Cells are grown to confluence in 175 cm^2 tissue culture flask. On the experimental day, cells harvested with 0.25% trypsin/0.02% EDTA and resuspended in extracellular solution at density of 5×10^6 cells/ml.
The intracellular solution contains Cs-Glutamate 90 mM; NaCl 8 mM; MgCl2 3 mM; CsCl 20 mM; CsBAPTA 20 mM; HEPES 10 mM; InsP3 0.02 mM; pH=7.2 adjusted with CsOH.
The extracellular solution contains NMDGCl 120 mM; KCl 5.4 mM; CsCl 10 mM; CaCl2 10 mM; MgCl2 1 mM; HEPES 10 mM; Glucose 5.5 mM; at pH=7.4 adjusted with HCl.
ICRAC currents are measured using 50 msec voltage ramps between −100 mV to +100 mV. The voltage ramps are stimulated every 3 seconds for at least 570 seconds. The maximum ICRAC current is allowed to develop for at least 135 seconds. Compounds diluted in extracellular solutions are then applied twice, 30 seconds apart. After incubating the cells with compound for 435 seconds, a reference solution is applied at the end of the experiment. The reference solution is a Ca^2+ free extracellular solution.
Off-line analysis with the Qpatch software is used to plot the current value at −80 mV for each ramp trace against time. The resulting current versus time data is then exported into a Microsoft Excel spreadsheet. The ICRAC membrane currents are separated from the cells basal background currents by either subtracting out the average membrane current values during the first 1-3 traces, or the average membrane current values obtained with the reference solution at the end of the experiment. The % ICRAC inhibition in each cell is calculated by comparing the amount of current just prior to the first compound addition to the amount of current after the cells has been perfused with the compound for at least 400 seconds.

An IC50 (IL-2 production) of 60 nM and an inhibition at 0.1 µM [1] of 54% were found for `CC1=C(c2ccc(NC(=O)c3ccncc3C)cc2)CN(c2nnn(C)n2)CC1` [Compound 46] in this work.
An IC50 (IL-2 production) of 51 nM and an inhibition at 0.1 µM [1] of 69% were found for `Cn1nnc(N2CCC(C3CC3)=C(c3cnc(NC(=O)c4cccc(F)c4F)cn3)C2)n1` [Compound 39] in this work.
An IC50 (IL-2 production) of 29 nM and an inhibition at 0.1 µM [1] of 43% were found for `CCC1=C(c2ccc(NC(=O)c3cnccc3C)cc2)CN(c2nnn(C)n2)CC1` [Compound 22] in this work.
An IC50 (IL-2 production) of 15 nM and an inhibition at 0.1 µM [1] of 67% were found for `Cn1nnc(N2CCC(C3CC3)=C(c3ccc(NC(=O)c4c(F)cccc4F)cc3)C2)n1` [Compound 9] in this work.
An IC50 (IL-2 production) of 37 nM and an inhibition at 0.1 µM [1] of 69% were found for `CC1=C(c2ccc(NC(=O)c3ccncc3F)cc2)CN(c2nnn(C)n2)CC1` [Compound 26] in this work.
An IC50 (IL-2 production) of 18 nM and an inhibition at 0.1 µM [1] of 74% were found for `CC1=C(c2ccc(NC(=O)c3cccc(F)c3F)cc2)CN(c2nnn(C)n2)CC1` [Compound 14] in this work.
An IC50 (IL-2 production) of 17 nM and an inhibition at 0.1 µM [1] of 53% were found for `CC1=C(c2ccc(NC(=O)c3c(F)cccc3F)cc2)CN(c2nnn(C)n2)CC1` [Compound 11] in this work.
An IC50 (IL-2 production) of 51 nM and an inhibition at 0.1 µM [1] of 48% were found for `CC1=C(c2ccc(NC(=O)c3cccc(F)c3C)cc2)CN(c2nnn(C)n2)CC1` [Compound 38] in this work.
An IC50 (IL-2 production) of 53 nM and an inhibition at 0.1 µM [1] of 54% were found for `Cn1nnc(N2CCC(C3CC3)=C(c3cnc(NC(=O)c4c(F)cccc4F)cn3)C2)n1` [Compound 40] in this work.
An IC50 (IL-2 production) of 99 nM and an inhibition at 0.1 µM [1] of 84% were found for `CC1=C(c2cnc(NC(=O)c3cc(F)ccc3Cl)cn2)CN(c2nnn(C)n2)CC1` [Compound 56] in this work.
An IC50 (IL-2 production) of 59 nM and an inhibition at 0.1 µM [1] of 60% were found for `Cc1ccncc1C(=O)Nc1ccc(C2=C(Cl)CCN(c3nnn(C)n3)C2)cc1` [Compound 45] in this work.
